# From patent US11524966B1 (Valo Early Discovery, Inc., priority 2017, dated 2022)
# pIC50: −log10 of the molar value.
# Molecular target: T1, USP25 (USP25-His6, Boston Biochem E-546) (Homo sapiens, UniProt Q9UHP3)
# T1 construct: His6; purchased Boston Biochem E-546
# T1 sequence (Q9UHP3 1-1055): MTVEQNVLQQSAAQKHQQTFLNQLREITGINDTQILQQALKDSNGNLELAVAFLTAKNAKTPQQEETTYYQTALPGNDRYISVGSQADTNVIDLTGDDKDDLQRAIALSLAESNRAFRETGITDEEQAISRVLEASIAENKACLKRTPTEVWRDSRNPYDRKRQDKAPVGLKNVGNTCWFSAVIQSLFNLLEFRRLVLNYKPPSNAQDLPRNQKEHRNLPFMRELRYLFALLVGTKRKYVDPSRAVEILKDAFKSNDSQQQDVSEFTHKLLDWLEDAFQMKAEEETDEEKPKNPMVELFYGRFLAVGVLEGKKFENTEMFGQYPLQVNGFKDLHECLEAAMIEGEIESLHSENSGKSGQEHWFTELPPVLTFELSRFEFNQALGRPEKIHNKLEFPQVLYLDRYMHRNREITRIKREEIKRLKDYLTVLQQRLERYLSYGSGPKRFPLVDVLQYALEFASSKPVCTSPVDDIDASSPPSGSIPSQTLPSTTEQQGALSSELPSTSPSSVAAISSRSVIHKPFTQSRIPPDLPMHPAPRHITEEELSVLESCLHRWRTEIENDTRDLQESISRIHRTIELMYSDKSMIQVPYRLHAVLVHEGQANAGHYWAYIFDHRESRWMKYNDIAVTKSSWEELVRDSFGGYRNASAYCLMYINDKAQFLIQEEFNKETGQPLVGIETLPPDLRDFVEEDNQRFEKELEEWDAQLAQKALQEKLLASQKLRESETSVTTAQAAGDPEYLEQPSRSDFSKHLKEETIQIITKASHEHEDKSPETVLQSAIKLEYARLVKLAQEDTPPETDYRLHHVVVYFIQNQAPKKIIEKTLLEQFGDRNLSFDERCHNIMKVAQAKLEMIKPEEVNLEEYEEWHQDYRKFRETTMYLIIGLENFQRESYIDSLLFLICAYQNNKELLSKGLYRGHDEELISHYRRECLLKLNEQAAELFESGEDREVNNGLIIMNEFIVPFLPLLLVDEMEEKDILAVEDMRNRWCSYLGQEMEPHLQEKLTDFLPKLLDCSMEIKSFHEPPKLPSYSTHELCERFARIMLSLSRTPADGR
# Experiment: Ubiquitin-Rhodamine 110 Assay for USP25 Activity, Example A-2
# Assay type: biochemical
# Settings: Ubiquitin-Rhodamine 110 assay, format Example A-2; read-out: USP25 A-2 IC50 range
# Summary of the method: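 Inhibition is quantified as IC50 by 4-parameter fit of fluorescence (485/535 nm) from Ub-Rh110 hydrolysis. Enzyme USP25-His6 at 75 pM with 30 min compound preincubation, then 25 nM substrate for 45 min at room temperature in pH 8.0 Tris buffer containing BME.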
row,Compound,pIC50
1,"Cc1ccc2c(N)c(C(=O)N[C@H]3COc4cc(N5CCNCC5)ncc4C3)sc2n1 [Example 16, (R)-3-Amino-6-methyl-N-(7-(piperazin-1-yl)-3,4-dihydro-2H-pyrano[3,2-c]pyridin-3-yl)thieno[2,3-b]pyridine-2-carboxamide]",5.70 to 6.70
2,"Cc1ccc2c(N)c(C(=O)N[C@H]3COc4cc(N5CC6CCC(C5)N6)nc(F)c4C3)sc2n1 [Example 17, N-((3R)-7-(3,8-Diazabicyclo[3.2.1]octan-3-yl)-5-fluoro-3,4-dihydro-2H-pyrano[3,2-c]pyridin-3-yl)-3-amino-6-methylthieno[2,3-b]pyridine-2-carboxamide]",6.70 to 7.30
3,"Cc1ccc2c(N)c(C(=O)N[C@H]3COc4c(cnc(N5CC6CCC(C5)N6)c4F)C3)sc2n1 [Example 18, N-((3R)-7-(3,8-Diazabicyclo[3.2.1]octan-3-yl)-8-fluoro-3,4-dihydro-2H-pyrano[3,2-c]pyridin-3-yl)-3-amino-6-methylthieno[2,3-b]pyridine-2-carboxamide]",6.70 to 7.30
4,"Cc1ccc2c(N)c(C(=O)N[C@H]3COc4nc(N5CCNCC5)ccc4C3)sc2n1 [Example 19, (R)-3-Amino-6-methyl-N-(7-(piperazin-1-yl)-3,4-dihydro-2H-pyrano[2,3-b]pyridin-3-yl)thieno[2,3-b]pyridine-2-carboxamide]",5.70 to 6.70
5,"Cc1ccc2c(N)c(C(=O)N[C@H]3COc4nc(N5CCNCC5)c(F)cc4C3)sc2n1 [Example 20, (R)-3-Amino-N-(6-fluoro-7-(piperazin-1-yl)-3,4-dihydro-2H-pyrano[2,3-b]pyridin-3-yl)-6-methylthieno[2,3-b]pyridine-2-carboxamide]",5.70 to 6.70
6,"CO[C@H]1CN(c2ccc3c(n2)CC[C@H](NC(=O)c2sc4nc(C)cc(C)c4c2N)C3)C[C@@H]1N [Example 23-3, 3-amino-N-[(6S)-2-[(3S,4S)-3-amino-4-methoxypyrrolidin-1-yl]-5,6,7,8-tetrahydroquinolin-6-yl]-4,6-dimethylthieno[2,3-b]pyridine-2-carboxamide]",< 5.70
7,"CO[C@H]1CN(c2ccc3c(n2)CC[C@H](NC(=O)c2sc4nc(C)ccc4c2N)C3)C[C@@H]1N [Example 23-4, 3-amino-N-[(6S)-2-[(3S,4S)-3-amino-4-methoxypyrrolidin-1-yl]-5,6,7,8-tetrahydroquinolin-6-yl]-6-methylthieno[2,3-b]pyridine-2-carboxamide]",< 5.70
8,"CO[C@H]1CN(c2ccc3c(n2)CC[C@@H](NC(=O)c2sc4nc(C)ccc4c2N)C3)C[C@@H]1N [Example 23-5, 3-amino-N-[(6R)-2-[(3S,4S)-3-amino-4-methoxypyrrolidin-1-yl]-5,6,7,8-tetrahydroquinolin-6-yl]-6-methylthieno[2,3-b]pyridine-2-carboxamide]",< 5.70
